# Data reported in patent US20100130737A1, “Regulating Agent of GPR34 Receptor Function” (TAKEDA PHARMACEUTICAL COMPANY LIMITED, priority 2005, published 2010).
# Experiments:
# human GPR34 [1] = target: T1, human GPR34 (Homo sapiens, UniProt Q9UPC5); assay: Human GPR34 antagonist activity as indicated by cAMP in human GPR34-expressing CHO cells; format: cell-based; set-up: expressed in transfected cells; conditions: for cAMP (%): buffer only = 0%, 2.5 μM Forskolin = 100%
# Method: Human GPR34-expressing CHO cells were maintained in nucleic acid-free MEM-a (Invitrogen) containing 10% dialyzed FBS (Invitrogen) and penicillin and streptomycin (BioWhittaker) (hereunder described as culture medium), and on the day before assay the cells were stripped with trypsin/EDTA (Invitrogen), centrifuged, re-suspended in culture medium and seeded 2×10^5 per well, 1 ml/well on a 24-well plate (Nunc). The seeded cells were cultured overnight at 37° C. in a CO2 incubator, and subjected to cAMP assay the next day.
# The plate was washed twice, 500 μL/well with Hank's balanced salt solution (HBSS, Invitrogen) containing 20 mM HEPES (1 M HEPES solution, Dojindo) with 0.2 mM 3-isobutyl-1-methylxanthine (IBMX, Wako Pure Chemical) added thereto (hereunder described as assay buffer (HBSS+HEPES-FIBMX)), and kept warm for 30 minutes in a water bath at 37° C. Next, 250 μL of assay buffer (HBSS+HEPES+IBMX) was substituted, and the plate was kept for a further 15 minutes in a water bath at 37° C. 2 μl of GPR34 antagonist compound solution at 250× the final concentration was added and gently stirred with a plate mixer, 2 μL, of lysoPS (Sigma or Alexis) at 250× the final concentration and 5 μM (2× the final concentration) of Forskolin (Wako Pure Chemical) were added, and 250 μL, of assay buffer (HBSS+HEPES+IBMX) was added and reacted for 30 minutes in a water bath at 37° C. In the case of the human GPR34-expressing CHO cells, 2 μL of 50 μM lysoPS was added so that the final concentration would be roughly the EC50 value of 0.2 μM. After completion of the reaction, intracellular cAMP was detected by competitive EIA using a cAMP Screen System (Applied Biosystems). After completion of the assay, 200 μL, of the Assay/lysis buffer for the cAMP Screen System was substituted, and intracellular cAMP was extracted by maintaining the cells for about 40 minutes at 37° C. EIA was then performed in accordance with the cAMP Screen Systems protocols to assay intracellular cAMP.
# Relative percentage values were calculated by Microsoft Excel with the cAMP level with only assay buffer (HBSS+HEPES+IBMX) added (“None” in the table) given as 0%, and the cAMP level with the final concentration 2.5 μM Forskolin added given as 100%.
# [2] = test system: rat peritoneal mast cells; assay: Degranulation inhibiting activity in rat peritoneal mast cells (β-hexosaminidase release); format: cell-based; conditions: for degranulation of rat peritoneal mast cells due to LysoPS and DNP-BSA stimulation: 10 μM compound, co-stimulation with 3 μM LysoPS and 100 ng/ml DNP-BSA = 100%, spontaneous degranulation = 0%
# Method: Ice-cooled mast cell medium (hereunder called MCM: 150 mM NaCl, 3.7 mM KCl, 3.0 mM NaH2PO4, 3.5 mM KH2PO4, 5.6 mM (D)-Glucose, 0.1% bovine serum albumin (BSA), 0.1% gelatin, 10 U/ml heparin, pH 6.8) was injected intraperitoneally into rats, about 40 ml per rat, the abdomens were massaged for about 2 minutes and then opened along the median line, and ascites was collected. The collected ascites were filtered with a cell strainer (Becton Dickinson) and centrifuged for 7 minutes at 50×g, and the precipitated cells were suspended in MCM and then centrifuged again for 7 minutes at 50×g. The precipitated cells were suspended in 5 ml of MCM, layered over 2 ml of 32% (w/v) BSA solution (dissolved in 0.9% NaCL), and left for 20 minutes at room temperature. This was centrifuged for 15 minutes at room temperature at 300×g, the cells between the MCM and BSA solution were discarded, and the precipitated cells were suspended in MCM and washed twice by being centrifuged for 5 minutes at 300×g. The precipitated cells were suspended in assay buffer (150 mM NaCl, 3.7 mM KCl, 3.0 mM NaH2PO4, 3.5 mM KH2PO4, 0.9 mM CaCl2, 5.6 mM (D)-Glucose, 0.01% BSA, pH 6.8), and these cells were used in the following test.
# RPMC cells suspended in assay buffer were passively sensitized by adding 10 μg/ml of monoclonal mouse anti-DNP-IgE (Seikagaku) and leaving them for 30 minutes on ice. After 5 minutes of centrifugation at 300×g, the precipitated cells were washed 3 times with assay buffer. The RPMC cells suspended in assay buffer were dispensed on 96-well V-bottom plates, 2×10^4 cells per well. The assay was performed with n=3 under each set of reaction conditions. The plates were maintained for 5 minutes at 37° C., the test compound was added, and after 15 minutes lysoPS (Sigma) was added to a final concentration of 3 μM and DNP-BSA (Calbiochem) to a final concentration of 100 ng/ml for a final capacity of 200 and left on a water bath at 37° C. After 20 minutes, the plate was ice cooled to stop RPMC activation, followed by 5 minutes of centrifugation at 300×g, and β-hexosaminidase activity in the supernatant was measured using 4-methylumbelliferyl-2-acetamido-2-deoxy-β-D-glucopyranoside (Wako Pure Chemical) degradation as the indicator.
# human GPR34 [3] = target: T1, human GPR34; assay: Human GPR34 antagonist activity indicated by changes in intracellular calcium concentration (FLIPR); format: cell-based; set-up: expressed in transfected cells; host or cells: CHO cells (human GPR34CHO line) stably transfected with pCR3.1 human lung Gα16; conditions: CHO cells expressing human GPR34/Gα16, against 2 μM lysoPS final concentration, Fluo-3AM
# Method: CHO cells expressing human GPR34/Gα were diluted to 3×10^4/100 μl in cell culture medium [nucleic acid-free Minimum Essential Alpha Medium (Invitrogen) containing 10% dialyzed fetal bovine serum (Invitrogen) 0.5 mg/ml Geneticin (Invitrogen), penicillin and streptomycin (Invitrogen)], dispensed 100 μl per well into a Black walled 96-well plate (Costar), and cultured overnight in a CO2 incubator. Changes in intracellular calcium concentration were measured with a FLIPR (Molecular Device) by the methods described below.
# 50 μg of Fluo-3AM (Dojindo) was dissolved in 21 μl of DMSO (Dojindo), an equal amount of 20% pluronic acid (Molecular Probes) was added and mixed, and this was added to 10.6 ml of assay buffer [prepared by adding 20 ml of 1 M HEPES (pH 7.4, Dojindo) to HBSS (Invitrogen), and then adding 10 ml of a solution obtained by dissolving 710 mg of Probenecid (Sigma) in 5 ml of 1 N NaOH and then adding and mixing 5 ml of the HBSS/HEPES solution)] with 105 μl of fetal bovine serum added thereto to prepare a fluorescent dye solution. The medium was removed from the cell plate, 100 μl per well of the fluorescent dye solution was immediately poured in, and the cells were cultured for 1 hour in a CO2 incubator to incorporate the fluorescent dye into the cells. After culture, the cells were washed with the aforementioned assay buffer. The compound was dissolved in DMSO (Wako Pure Chemical), diluted with DMSO as necessary, added to the aforementioned assay buffer to the target concentration and poured into the plate. To measure antagonist activity, 8 μM lysophosphatidyl serine (lysoPS, Alexis) solution (2 μM final concentration during reaction) was poured into the plate, which was set in the FLIPR. Following these preliminaries, the agonist effect was measured in the FLIPR by measuring changes in intracellular calcium concentration up to 180 seconds after addition of the sample, and after 200 seconds lysoPS was added and the antagonist effect was measured. In the case of the agonist effect, the EC50 value of the added compound was calculated from the dose reaction curve using changes in fluorescent strength from 0 to 180 seconds after the start of the reaction. In the case of the antagonist effect, the IC50 was calculated from the dose reaction curve using changes in maximum fluorescent strength after 200 to 380 seconds of reaction time. The data was analyzed using “GraphPad PRISM4”.
# [4] = test system: rat peritoneal mast cells; assay: Degranulation inhibiting activity in rat peritoneal mast cells (β-hexosaminidase release); format: cell-based
# human GPR34 [5] = target: T1, human GPR34; assay: Reactivity of human GPR34CHO cell strain stably expressing Gα16 to lysophosphatidyl serine (FLIPR); format: cell-based; set-up: expressed in transfected cells; host or cells: CHO cells (human GPR34CHO line) stably transfected with pCR3.1 human lung Gα16; conditions: Fluo 3-AM, 3 minutes after addition; concentration-dependent
# Method: The reactivity of the human GPR34CHO cell strain stably expressing Gα16 to lysophosphatidyl serine (lysoPS) was investigated by the FLIPR (Molecular Devices) assay method. The fluorescent calcium indicator Fluo 3-AM (Wako Pure Chemical) was incorporated into the human GPR34CHO cell strain stably expressing Gα16, and the cells were washed with assay buffer. Various concentrations of 50 μl lysophosphatidyl serine solution were added to cells immersed in 100 μl of assay buffer, and the intracellular fluorescent strength 3 minutes after addition was measured by FLIPR.
# T1 sequence (Q9UPC5 whole entry): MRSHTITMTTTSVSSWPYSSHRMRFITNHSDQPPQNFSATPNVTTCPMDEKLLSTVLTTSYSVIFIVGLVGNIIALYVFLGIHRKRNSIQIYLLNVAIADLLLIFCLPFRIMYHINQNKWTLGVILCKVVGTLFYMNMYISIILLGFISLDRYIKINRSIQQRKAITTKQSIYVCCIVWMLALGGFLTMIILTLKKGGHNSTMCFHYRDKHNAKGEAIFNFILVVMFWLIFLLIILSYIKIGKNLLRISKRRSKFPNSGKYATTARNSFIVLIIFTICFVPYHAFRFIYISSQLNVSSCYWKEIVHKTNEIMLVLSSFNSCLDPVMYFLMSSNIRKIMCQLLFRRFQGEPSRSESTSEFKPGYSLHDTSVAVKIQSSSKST
melting point [°C],IC50 (human GPR34 [3]) [µM],Compound,degranulation of rat peritoneal mast cells due to LysoPS and DNP-BSA stimulation [2] [%],also measured
208 to 209,–,O=C(Cc1ccc(OCc2ccc(F)cc2)cc1)NC1(C(=O)O)Cc2ccc(-c3ccc(Cl)cc3)cc2C1 (centres unmarked) [Example B134],–,cAMP (%) (human GPR34 [1]; 10 μM compound + 2.5 μM Forskolin + 0.2 μM LysoPS): 299%; restoration of cAMP levels (in words) (human GPR34 [1]; at 10 μM): restored cAMP levels to at or above the level before Forskolin stimulus
166 to 168,≤ 1,"O=C(N[C@@H](Cc1ccc(OCc2ccc(F)cc2)cc1)C(=O)O)c1cc2ccc(-c3ccc(Cl)cc3)cc2o1 [Example C157, N-{[6-(4-Chlorophenyl)-1-benzofuran-2-yl]carbonyl}-O-(4-fluorobenzyl) tyrosine]",4.8,–
222,≤ 1,"CN(C(=O)c1cn2ccc(-c3ccc(Cl)cc3)cc2n1)[C@@H](Cc1ccc(OCc2ccccc2)cc1)C(=O)O [Example E51, O-Benzyl-N-{[7-(4-chlorophenyl)imidazo[1,2-a]pyridin-2-yl]carbonyl}-N-methyltyrosine]",5.0,–
262,≤ 1,"Cc1ccc(COc2ccc(C[C@H](NC(=O)c3cn4ccc(-c5ccc(Cl)cc5)cc4n3)C(=O)O)cc2)cc1 [Example E59, N-{[7-(4-Chlorophenyl)imidazo[1,2-a]pyridin-2-yl]carbonyl}-O-(4-methylbenzyl)tyrosine]",5.1,–
261,≤ 1,"O=C(N[C@@H](Cc1ccc(OCc2ccc(Cl)cc2)cc1)C(=O)O)c1cn2ccc(-c3ccc(Cl)cc3)cc2n1 [Example E63, O-(4-Chlorobenzyl)-N-{[7-(4-chlorophenyl)imidazo[1,2-a]pyridin-2-yl]carbonyl}tyrosine]",5.7,–
245,≤ 1,"CCc1ccc(COc2ccc(C[C@H](NC(=O)c3cn4ccc(-c5ccc(Cl)cc5)cc4n3)C(=O)O)cc2)cc1 [Example E65, N-{[7-(4-Chlorophenyl)imidazo[1,2-a]pyridin-2-yl]carbonyl}-O-(4-ethylbenzyl) tyrosine]",8.8,–
–,–,lisophosphatidylserine [lysoPS],–,"RPMC degranulation ([2]; 100 ng/ml DNP-BSA stimulus + 3 μM lysoPS added simultaneously): 36.7%; RPMC degranulation ([4]; 100 ng/ml DNP-BSA stimulus + 0.1 μM lysoPS added simultaneously): 8.4%; RPMC degranulation ([4]; 100 ng/ml DNP-BSA stimulus + 0.3 μM lysoPS added simultaneously): 14.7%; RPMC degranulation ([4]; 100 ng/ml DNP-BSA stimulus + 1 μM lysoPS added simultaneously): 26.0%; RPMC degranulation ([4]; 100 ng/ml DNP-BSA stimulus + 10 μM lysoPS added simultaneously): 45.2%; cAMP (%) (human GPR34 [1]; 0.2 μM LysoPS + 2.5 μM Forskolin): 43%; EC50 (human GPR34 [1]; human GPR34-expressing CHO cells, cAMP assay, read-out: EC50 value of lysoPS): ~0.2 µM"
–,–,lysophosphatidyl serine,–,"intracellular fluorescent strength (intracellular calcium), in words (human GPR34 [5]): caused a rise in intracellular fluorescent strength"
